Test results taken from publication PMC10714400, “Antimicrobial Peptide–Peptoid Hybrids with and without Membrane Disruption” (ACS Infectious Diseases, 2023).
Values after ≈ are worked out from the molar mass of the structure shown. Where a SMILES comes first, the peptide text is derived from it. [ ]: non-standard residue; d: D form. Nleu = CC(C)CNCC(=O)O; Nlys = NCCCCNCC(=O)O

Legend:
HEK293 cells = test: Cell viability assay by Alamar blue; details: read-out: Toxicity on HEK293 cells; CSV
Experimental: The data are represented as the mean value ± SD, n = 3. […] (c) Vesicle leakage assay for a selection of compounds. Lipid vesicles made of EYPG or EYPC were suspended in a buffer (10 mM TRIS, 107 mM NaCl, pH 7.4). After 45 s, the indicated compound was added to reach the desired concentration. After 240 s, 30 μL of 1.2% TritonX-100 was added for full fluorescein release. […] See Supporting Information for the full curves, all of the data, and procedures.
HEK293 cells were cultured and maintained in DMEM high glucose (Dulbecco’s modified Eagle medium, Sigma Aldrich) medium supplemented with 10% FBS (Sigma Aldrich) and 1% penicillin/streptomycin. A549 cells were cultured and maintained in RPMI-1640 medium (Sigma Aldrich), supplemented with 10% FBS (Sigma Aldrich) and 1% penicillin/streptomycin. The cells were handled and subcultured according to the manufacturer instructions. Cells were incubated in a humidified incubator at 37 °C in the presence of 5% CO2.
Assays on HEK293, A549 cells were performed as described earlier.[74] […]

K. pneumoniae NCTC418 = system: K. pneumoniae NCTC418
Experimental: (§1) Antimicrobial activity was assayed for all the peptide–peptoids against P. aeruginosa PAO1, K. pneumoniae NCTC418, E. coli W3110, A. baumannii ATCC 19606, methicillin-resistant S. aureus COL (MRSA), and for selected peptides on P. aeruginosa PA14 and the polymyxin-B-resistant derivatives PA14 4.13, PA14 4.18, PA14 2P4, as well as the clinical isolates ZEM-1A and ZEM9A, K. pneumoniae OXA-48, S. aureus Newman, Enterobacter cloacae, Stenotrophomonas maltophilia, Burkholderia cenocepacia, and Staphylococus epidermidis. To determine the Minimal Inhibitory Concentration (MIC), the Broth Microdilution method was used.[72] A colony of bacteria was picked and grown in LB medium overnight at 37 °C.
(§2) To each well was finally added 4 μL of the diluted bacterial suspension (see above), corresponding to approximately 5 × 10^5 CFU. For each test, two columns of the plate were kept for sterility control (medium only), growth control (medium with bacterial inoculum, no compound). The positive control, Polymyxin B (starting with a concentration of 16 μg/mL) in MH medium with bacterial inocula, was introduced in the two lines of the plate. The plates were incubated at 37 °C for ca. 18 h under static conditions. Next, 15 μL of 3-(4,5-dimethylthiazol-2-yl)-2,5-diphenyltetrazolium bromide (MTT)[73] (1 mg/mL in sterilized MilliQ deionized water) were added to each well, and the plates were incubated for 20–30 min at room temperature. The minimal inhibitory concentration (MIC) was defined as the lowest concentration of the compound that inhibits the visible growth of the tested bacteria (yellow) with the unaided eye.

A. baumannii ATCC19606 = system: A. baumannii ATCC19606
Experimental: as §1, §2

S. aureus COL (MRSA) = system: S. aureus COL (MRSA)
Experimental: as §1, §2

P. aeruginosa PAO1 = system: P. aeruginosa PAO1
Experimental: as §1, §2

E. coli W3110 = system: E. coli W3110
Experimental: as §1, §2

PA14 4.13 (phoQ) = details: CSV; […] MH at pH 8.5
Experimental: as §1, §2

PA14 4.18 (pmrB) = details: […] MH at pH 8.5
Experimental: as §1, §2

PA14 2P4 (pmrB) = details: CSV; […] MH at pH 8.5
Experimental: as §1, §2

P. aeruginosa PA14 = details: PA14, pH 8.5
Experimental: as §1
as §2, with “The plates were incubated at 37 °C for ca. 18 h under static conditions.” left out

S. aureus Newman = details: Newman, 4 h, pH 8.5
Experimental: as §1
as §2, with “The plates were incubated at 37 °C for ca. 18 h under static conditions.” left out

[1] = Circular dichroism, α-helical content; type: physicochemical; details: 0.1 mg/mL; for CD %α with 5 mM DPC: 10 mM phosphate buffer pH 7.4, 5 mM DPC; for CD %α with 20% TFE: 10 mM phosphate buffer pH 7.4, 20% TFE
[2] = system: human red blood cells (hRBC); test: Minimum hemolytic concentration (MHC); type: cell-based
Source text: We also measured minimal hemolysis concentrations (MHC) on human red blood cells by serial 2-fold dilution as an indication of toxicity against eukaryotic cells (Table 1).

CC(C)C[C@H](NC(=O)CN(CCCCN)C(=O)[C@H](CC(C)C)NC(=O)[C@H](CC(C)C)NC(=O)[C@H](CCCCN)NC(=O)[C@H](CC(C)C)NC(=O)[C@H](CC(C)C)NC(=O)[C@H](CCCCN)NC(=O)CNCCCCN)C(=O)N[C@@H](CC(C)C)C(=O)N(CC(N)=O)CC(C)C [EB2, kKLLKLLkLLl] (H-[Nlys]KLLKLL[Nlys]LL[Nleu]-NH2)
IC50 (HEK293 cells): > 200 µM
MIC K. pneumoniae NCTC418, full MH at pH 7.4 (K. pneumoniae NCTC418; NCTC418, 4 h, pH 7.4): >32 ug/mL
MIC K. pneumoniae NCTC418, full MH at pH 8.5 (K. pneumoniae NCTC418; NCTC418, 4 h, pH 8.5): >32 ug/mL
MIC K. pneumoniae NCTC418 […] 7.4 (K. pneumoniae NCTC418; Table S2, […] MH, pH 7.4): > 32 µg/mL
MIC K. pneumoniae NCTC418 […] 8.5 (K. pneumoniae NCTC418; Table S2, […] MH, pH 8.5): > 32 µg/mL
MIC K. pneumoniae NCTC418 Full MH 7.4 (K. pneumoniae NCTC418; Table S2, full MH, pH 7.4): > 32 µg/mL
MIC K. pneumoniae NCTC418 Full MH 8.5 (K. pneumoniae NCTC418; Table S2, full MH, pH 8.5): > 32 µg/mL
MIC A. baumannii ATCC19606, full MH at pH 7.4 (A. baumannii ATCC19606; ATCC19606, 4 h, pH 7.4): >32 ug/mL
MIC A. baumannii ATCC19606 […] 7.4 (A. baumannii ATCC19606; Table S2, […] MH, pH 7.4): 16 µg/mL (≈ 12.1 µM)
MIC A. baumannii ATCC19606 […] 8.5 (A. baumannii ATCC19606; Table S2, […] MH, pH 8.5): 8 µg/mL (≈ 6.05 µM)
MIC A. baumannii ATCC19606 Full MH 7.4 (A. baumannii ATCC19606; Table S2, full MH, pH 7.4): > 32 µg/mL
MIC A. baumannii ATCC19606 Full MH 8.5 (A. baumannii ATCC19606; Table S2, full MH, pH 8.5): 32 µg/mL (≈ 24.2 µM)
MIC S. aureus COL (MRSA), full MH at pH 7.4 (S. aureus COL (MRSA); COL, 4 h, pH 7.4): >32 ug/mL
MIC S. aureus COL (MRSA), full MH at pH 8.5 (S. aureus COL (MRSA); COL, 4 h, pH 8.5): 32 ug/mL
MIC S. aureus COL (MRSA) […] 7.4 (S. aureus COL (MRSA); Table S2, […] MH, pH 7.4): 32 µg/mL (≈ 24.2 µM)
MIC S. aureus COL (MRSA) […] 8.5 (S. aureus COL (MRSA); Table S2, […] MH, pH 8.5): 2 µg/mL (≈ 1.51 µM)
MIC S. aureus COL (MRSA) Full MH 7.4 (S. aureus COL (MRSA); Table S2, full MH, pH 7.4): > 32 µg/mL
MIC S. aureus COL (MRSA) Full MH 8.5 (S. aureus COL (MRSA); Table S2, full MH, pH 8.5): 32 µg/mL (≈ 24.2 µM)
MIC P. aeruginosa PAO1, full MH at pH 7.4 (P. aeruginosa PAO1; PAO1, 4 h, pH 7.4): 32 ug/mL
MIC P. aeruginosa PAO1, full MH at pH 8.5 (P. aeruginosa PAO1; PAO1, 4 h, pH 8.5): 16 ug/mL
MIC P. aeruginosa PAO1 […] 7.4 (P. aeruginosa PAO1; Table S2, […] MH, pH 7.4): 16 µg/mL (≈ 12.1 µM)
MIC P. aeruginosa PAO1 […] 8.5 (P. aeruginosa PAO1; Table S2, […] MH, pH 8.5): 8 µg/mL (≈ 6.05 µM)
MIC P. aeruginosa PAO1 Full MH 7.4 (P. aeruginosa PAO1; Table S2, full MH, pH 7.4): 32 µg/mL (≈ 24.2 µM)
MIC P. aeruginosa PAO1 Full MH 8.5 (P. aeruginosa PAO1; Table S2, full MH, pH 8.5): 16 µg/mL (≈ 12.1 µM)
MIC E. coli W3110, […] MH at pH 7.4 (E. coli W3110; CSV, […] MH at pH 7.4): 4 ug/mL
MIC E. coli W3110, full MH at pH 7.4 (E. coli W3110; CSV, full MH at pH 7.4): 32 ug/mL
MIC E. coli W3110, full MH at pH 8.5 (E. coli W3110; CSV, full MH at pH 8.5): 32 ug/mL
MIC E. coli W3110 […] 7.4 (E. coli W3110; Table S2, […] MH, pH 7.4): 4 µg/mL (≈ 3.03 µM)
MIC E. coli W3110 […] 8.5 (E. coli W3110; Table S2, […] MH, pH 8.5): 2 µg/mL (≈ 1.51 µM)
MIC E. coli W3110 Full MH 7.4 (E. coli W3110; Table S2, full MH, pH 7.4): 32 µg/mL (≈ 24.2 µM)
MIC E. coli W3110 Full MH 8.5 (E. coli W3110; Table S2, full MH, pH 8.5): 32 µg/mL (≈ 24.2 µM)
MIC P. aeruginosa PA14 4.13, […] MH at pH 8.5 (PA14 4.13 (phoQ)): 4 ug/mL
MIC P. aeruginosa PA14 4.18, […] MH at pH 8.5 (PA14 4.18 (pmrB); CSV): 6 ug/mL
MIC P. aeruginosa PA14 4.18 (PA14 4.18 (pmrB); Table S3): 4 to 8 µg/mL
MIC P. aeruginosa PA14 2P4, […] MH at pH 8.5 (PA14 2P4 (pmrB)): 8 ug/mL
MIC P. aeruginosa PA14 (P. aeruginosa PA14): 2 to 4 µg/mL
MIC S. aureus Newman (S. aureus Newman): 2 to 4 µg/mL
CD %α with 5 mM DPC ([1]; DichroWeb, Contin-LL): 11%
CD %α with 20% TFE ([1]; DichroWeb, Contin-LL): 15%
CD %α with 5 mM DPC ([1]; Table S2): 11%
CD %α with 20% TFE ([1]; Table S2): 15%
Hemolysis [2]: none of them showed any measurable hemolysis
MHC [2]: >2000 µg/mL
